Experiments:
Type in all cases: cell-based
N2A cells = test: ROS by H2-DCFDA probe after proton irradiation, N2A; conditions: 50 μM, positive control
Excerpt: (§1) Cell lines were irradiated using pencil beam scanning (PBS) proton beams produced by IBA ProteusOne (Ion Beam Applications, Louvain-la-Neuve, Belgium). Single layer mono-energy 227 MeV pencil beams with uniform spacing of 0.25 cm between each spot were used to create a large field size with uniform dose distribution (±2%) that encompassed all sample wells containing the cells. A fixed source to surface distance (SSD) setup and gantry at 180 degrees was used to delivery 0.5, 1, 2, 4, and 6 Gray (Gy) dose of ionizing radiation to cells. The cells were place at an 8 cm depth, with a linear energy transfer (LET) of approximately 1.7 keV/μm, using solid water slabs as a buildup. […] The monitor units needed to deliver the intended dose were calculated using the measure dose/MU values.
(§2) Post radiation, 2′,7′-dichlorodihydrofluorescein diacetate (H2-DCFDA) probes were used to measure the level of reactive oxygen species (ROS) post-proton radiation (1 Gy, 230 MeV proton beam). […] A fluorescence microplate reader (SpectraMax M5, Molecular Devices Corporation, California, USA) was used to detect the generation of fluorescent DCF molecules with an excitation filter of 485 nm and an emission filter of 525 nm, with a 515 nm cutoff filter. […] Following irradiation, the cells were transported back for plate reading, 30 minutes post radiation.

HUVEC cells = test: ROS by H2-DCFDA probe after proton irradiation, HUVEC; conditions: 50 μM, positive control
Excerpt: as §1, §2

NIH3T3 cells = test: ROS by H2-DCFDA probe after proton irradiation, NIH3T3; conditions: NIH3T3, 50 μM, positive control
Excerpt: as §1, §2

HepG2 cells = test: ROS by H2-DCFDA probe after proton irradiation, HepG2; conditions: control HepG2 cells, 50 μM, positive control
Excerpt: as §1, §2

Measured: ROS (H2-DCFDA fluorescence)

CC(=O)N[C@@H](CS)C(=O)O [NAC, N-acetyl cysteine, reference compound]
decrease in ROS: all assays above
